# Data published in ChEMBL document CHEMBL3507680, “University of Dundee, Gates Library screen for HepG2 cell viability”.
# Test: Human HepG2 cell viability assay in 384 well format
# Type: toxicity, cell-based
# Parameters: dose 125 nL, time 70.5 hour; concentration not given beside the values
# Settings: HepG2 cells, read-out: Inhibition
row,Structure (SMILES),cytotoxicity at 70.5 h [%]
1,CCOC1CCN(C(=O)NCc2ccc(C(=O)N(C)C(C)C)cc2)CC1,-18.5
2,Cc1cccc(S(=O)(=O)NCc2cccc(CS(C)(=O)=O)c2)c1,9.39
3,CCNC(=O)C(C)NC(=O)Nc1ccccc1SC(F)(F)F (stereo not given),-10.8
4,CCNC(=O)C(C)NC(=O)Nc1ccccc1SCC (stereo not given),-16.9
5,Cc1nc(C(=O)N(C)CC(F)(F)C(F)(F)F)c2ccccn12,-13.5
6,CCn1ccnc1CN1CCN(c2nccc(OC)n2)CC1C (stereo not given),18.6
7,Cn1c(CCCNC(=O)Nc2cn[nH]c2)nc2ccccc21,-3.29
8,CCc1ccc(CNc2cc(-c3ccoc3C)nn2CCO)o1,-18.9
9,CN1CCc2ccc(NCc3cscn3)cc2C1=O,2.5
10,CC(C)NC(=O)NC(=O)C(C)N1CCN(C2CCN(C(C)C)CC2)CC1 (stereo not given),-3.33
11,COCCCC(=O)Nc1cccnc1N1CCCCC1,-10.4
12,CCc1nnc(NC(=O)N(CCOC)Cc2ccc(C)o2)s1,14.4
13,COC1CCN(S(=O)(=O)N2CCCC2c2ccco2)CC1 (stereo not given),0.386
14,CCCN(Cc1ccccc1O)C(=O)Nc1cnn(CCOC)c1,-12.8
15,CC(C)OC(=O)CC(NC(=O)CCn1cccn1)c1ccccc1 (stereo not given),5.59
16,CSC1(CNC(=O)N(C)Cc2ccc(C)s2)CCOCC1,15.5
17,CC(NCc1nnc2n1CCCC2)c1nc(Cc2ccccc2)no1 (stereo not given),-8.89
18,CN(C)C(CNC(=O)OCC(F)(F)F)c1ccsc1 (stereo not given),-8.54
19,CN(Cc1ccsc1)C(=O)c1nc(N2CCCCC2)ncc1Cl,-14.3
20,Cc1noc(C)c1CN(C)C(=O)c1nc(N2CCCC2)ncc1Cl,-11.7
21,CS(=O)(=O)NC1CCN(Cc2coc(-c3ccccc3)n2)CC1,-9.14
22,CCN1CCC(NC(=O)N(C)Cc2csc3ccccc23)CC1,-8.41
23,O=C(Nc1ccc(F)cc1F)NC1(CO)CCOCC1,-4.4
24,c1cnn(C2CN(c3nc(-c4ccncc4)nc4c3CCC4)C2)c1,-1.27

row,Structure (SMILES),cytotoxicity at 70.5 h [%]
1,CS(=O)(=O)c1ccccc1NC(=O)N[C@@H]1c2ccccc2C[C@@H]1O,12.9
2,CCC(C)c1csc(NC(=O)Cc2csc(-c3nnc[nH]3)n2)n1 (stereo not given),9.25
3,CC(C)Oc1ccccc1CNC(=O)N(C)CC(F)F,-3.01
4,CN(C)C(CNC(=O)CCNC(=O)OCC(F)(F)F)c1ccsc1 (stereo not given),-0.647
5,CC(NCc1nnc2n1CCCC2)c1nc(C(C)(C)C)no1 (stereo not given),-13.6
6,CSC1(CNC(=O)NCc2sccc2C)CCOCC1,2.45
7,CNC(=O)CCOC(=O)c1cccc(-n2ccc(C(F)(F)F)n2)c1,0.427
8,O=C(c1cc(C2CC2)nc2onc(-c3ccccc3)c12)N1CCOCC1,18.5
9,COc1cc(Cl)ccc1CNC(=O)N(C)C(C)CS(C)(=O)=O (stereo not given),-7.57
10,CCCC(=O)NC1CCCN(c2cncc(Br)c2)C1 (stereo not given),-10.5
11,CS(=O)(=O)c1ccccc1N[C@@H]1c2ccccc2C[C@@H]1O,21.1
12,Cc1nn2cccnc2c1C(=O)NCc1ccccc1OC1CCC1,-4.01
13,c1cc(NCc2ccsc2)cc(-c2nnc[nH]2)c1,1.3
14,Oc1c(F)cc(CNc2cccc(-c3nnc[nH]3)c2)cc1F,-9.32
15,COC(=O)C(NC(=O)c1ccc(C)cc1C)c1cccnc1 (stereo not given),-7.04
16,Cn1c(N)nnc1SCc1c(F)cccc1Br,-3.61
17,Cn1c(CO)nnc1SCc1c(F)cccc1Br,-5.69
18,Cc1nn2cccnc2c1C(=O)NCc1ccnc(OCC2CC2)c1,-12.1
19,Cc1noc(CCNC(=O)C2CSCN2C(=O)C2CCCC2)n1 (stereo not given),-5.54
20,CC1CCN(c2ccc(C(=O)N3CCCC3c3nncn3C)cn2)CC1 (stereo not given),8.02
21,CC(C)(C)NC(=O)c1cccc(CN2CCS(=O)(=O)CC2)c1,-4.97
22,CC(C)c1noc(OCC(=O)N(C)C(C)C)n1,-12.3
23,CCN(CC)C(=O)COc1nc(C(C)C)no1,18.3
24,Cc1nc(CN2CCCN(C(=O)CC(C)n3cccc3)CC2)cs1 (stereo not given),-12.7

row,Structure (SMILES),cytotoxicity at 70.5 h [%]
1,O=S(=O)(CCN1CCCCC1Cn1cccn1)c1ccccc1 (stereo not given),-28.3
2,Cc1cc(C(=O)N(CC2CCCO2)c2ccncc2)c(C)o1 (stereo not given),-9.47
3,Cc1nn(CC(C)C)c(C)c1CC(=O)N1CCCC(CNS(C)(=O)=O)C1 (stereo not given),-13.2
4,CC(=O)N(C)C1CCN(C(=O)NCCc2cc(F)ccc2F)CC1,-13.7
5,N#Cc1cccnc1N1CCC(OCCc2ccccc2)CC1,-9.51
6,Fc1cccnc1N1CCCC(c2nccs2)C1 (stereo not given),-5.3
7,CN(Cc1cnn(C)c1)S(=O)(=O)N1CCCCCC1,-9.53
8,CN(Cc1cnn(C)c1)S(=O)(=O)N1CCc2ccccc2C1,7.8
9,CC(=O)NCCC(=O)NCCCOc1c(C)cccc1C,-6.31
10,Cc1occc1C(=O)NCC(=O)NCCOc1cccc(Cl)c1,-11.3
11,COC1CCN(C(=O)c2csc(-c3ccccc3F)n2)CC1,-4.85
12,NC(=O)C1CCN(CC(=O)NCCc2c(F)cccc2F)CC1,-7.99
13,Cc1cc(N2CCc3c(ncn3C)C2)nc(N)n1,-0.513
14,COc1ccccc1CN1CCN(CCN2CCOC2=O)CC1,8.76
15,CCc1nc(CCNC(=O)NC2CCSCC2)cs1,5.18
16,CC(NC(=O)Nc1ccc(S(C)(=O)=O)cc1)c1ccc2c(c1)CC(=O)N2 (stereo not given),-7.73
17,CS(=O)(=O)NC1CCN(C(=O)c2ccc3ccccc3c2)C1 (stereo not given),5.82
18,NC(=O)N1CCCN(CC(=O)NCCc2c(F)cccc2F)CC1,-6.21
19,O=C(NCC1(O)CCSC1)c1ccoc1 (stereo not given),-5.15
20,Cc1ccc(C(=O)NCc2ccccc2S(=O)(=O)N(C)CCO)cc1F,-1.52
21,O=C(CCc1cccs1)NCC1CCCN1c1cccnn1 (stereo not given),3.16
22,Cc1nsc(N2CCCN(C(=O)NCc3cccnc3)CC2)n1,-0.506
23,O=C(NCc1nncn1C1CC1)Nc1ccc(OC2CCC2)c(F)c1,-1.51
24,CCN1CCCC1CNC(=O)CCc1cccs1 (stereo not given),-3.71

row,Structure (SMILES),cytotoxicity at 70.5 h [%]
1,O=C(c1ccc2nccn2c1)N1CCCC1c1noc(C2CC2)n1 (stereo not given),-5.7
2,CC(C)(C)NC(=O)CN1CCCN(Cc2ccc(C#N)cc2)CC1,-6.11
3,Cc1cc(C)c(CCNC(=O)CN2CCCN(C(N)=O)CC2)c(C)c1,15.4
4,N#CCCN(Cc1ccco1)C(=O)c1ccc(OCC2CC2)cc1,-4.89
5,CC(C)C(C)(C#N)NC(=O)CN1CCCN(Cc2ccccc2F)CC1 (stereo not given),-3.81
6,CCn1cnnc1C1CCN(C(=O)CC(C)n2cccc2)CC1 (stereo not given),-1.21
7,Cc1ccccc1-n1cnnc1SCC(=O)NCC1CCCO1 (stereo not given),-8.74
8,CCC(C)NC(=O)c1ccc(CNC(=O)CC(C)(C)C)cc1 (stereo not given),-9.82
9,CCC(C)NC(=O)c1cccc(CNC(=O)CC(F)(F)F)c1 (stereo not given),-6.23
10,Cc1ccc(C(=O)NCCNC(=O)c2cncnc2C)cc1F,-11.3
11,CCCNC(=O)CNc1cc(C(=O)NCC(F)(F)F)cc(F)c1C,-6.37
12,COc1ccc(C(=O)NCCNC(=O)c2cncnc2C)cc1,-8.47
13,N#Cc1ccc(N2CCCC2Cn2cccn2)nc1 (stereo not given),-8.46
14,CCNC(=O)NCc1ccccc1NS(=O)(=O)c1ccccc1,-10.5
15,CCc1nccn1C1CCCN(C(=O)c2ccn(C)c(=O)c2)C1 (stereo not given),-0.0555
16,CCNC(=O)NCc1cccc(N2CC=CC2)c1,1.58
17,CCNC(=O)NC(C)(C)C(=O)NCc1cccc(N2CC=CC2)c1,2.33
18,CCNS(=O)(=O)C1CCN(C(=O)c2ccc(F)cc2)C1 (stereo not given),1.22
19,CCNS(=O)(=O)C1CCN(C(=O)c2c(F)cc(F)cc2F)C1 (stereo not given),-2.04
20,CN(Cc1ccncc1)Cc1nccn1Cc1ccccc1,-5.12
21,CCC(C)(NCC(=O)NC(C)C)c1nccs1 (stereo not given),-3.03
22,CC(=O)N1CCN(CC(=O)NCCCN(C)c2ccccc2)CC1,-7.53
23,Cc1cnn(CC2CCCN2c2ccc(C#N)cn2)c1 (stereo not given),6.54
24,COc1ccc(CNC(=O)N2CCOCC2C2CC2)cc1C (stereo not given),-3.69

row,Structure (SMILES),cytotoxicity at 70.5 h [%]
1,CCc1nsc(N2CCN(CC(=O)Nc3c(C)n[nH]c3C)CC2)n1,2.39
2,COCCCN1CCC(NC2CSCCc3ccccc32)CC1 (stereo not given),2.22
3,CCN(CC(F)(F)F)C(=O)C1CCCN(Cc2ccccn2)C1 (stereo not given),-3.97
4,CCC1CN(Cc2c(O)ccc3oc4c(c23)CCCC4)CCO1 (stereo not given),8.92
5,O=C(CCNc1ncccn1)NCc1cccc(OC(F)F)c1,-11.7
6,CNS(=O)(=O)CC(=O)N1CC2(CCCC2)c2c(F)cccc21,0.789
7,COc1ccc2cccc(CC(=O)NCc3n[nH]c(=O)[nH]3)c2c1,-1.52
8,COc1ccc2cccc(CC(=O)NCc3nccc(N)n3)c2c1,-2.39
9,CCOCc1nnc(NCc2ccsc2)o1,-3.37
10,c1cc(CNc2nnc(Cc3ccsc3)o2)cs1,-8.44
11,c1coc(CNc2nnc(Cc3ccsc3)o2)c1,-3.55
12,CC(C)Cc1nnc(NCc2ccsc2)o1,-5.09
13,CCN(CC(=O)N(C)C)C(=O)C(C)(C)c1ccc2c(c1)OCCO2,-8.05
14,COc1ccccc1NCC(=O)NCc1ccc(-c2ccn[nH]2)cc1,-4.94
15,CCn1ncc2c1CCCC2NCc1cscn1 (stereo not given),-5.01
16,Cc1nc(CN2CCN(C(C)C(=O)NC3CCCC3)CC2)cs1 (stereo not given),-5.82
17,Cc1ccc(C(=O)NC(CN2CCCC2)c2ccccc2)c(=O)[nH]1 (stereo not given),-3.04
18,COc1ccc(F)cc1CSCC(=O)N(C)CCC#N,0.901
19,COc1cc(F)ccc1N(C)Cc1cccnc1,15.7
20,CCOCc1ccccc1NC(=O)NCC(C)(O)c1cccs1 (stereo not given),-1.02
21,Cc1cc(NCC(=O)N(C)C)c(C(N)=O)cc1F,-0.553
22,CC(C)(C)c1nccc(N2CCN(C3CCS(=O)(=O)C3)CC2)n1 (stereo not given),-0.27
23,CCC(C)(N)c1nc(C(C)C)cc(=O)[nH]1 (stereo not given),-4.71
24,CCn1ccnc1CN1CCNCC1C (stereo not given),-5.16
